Data set [1] concerns the target Prostaglandin G/H synthase 1 (Homo sapiens, UniProt P23219).
In data set [2] the test system is Rattus norvegicus. Briefly: Anti-inflammatory activity in carrageen-induced paw edema rat model assessed as change in paw height measured after 1 hr (reference value: 0.68 +/- 0.04 %). It counts as functional.
A short description of data set [3]: Ulcerogenic activity in Albino mouse assessed as inflammation in stomach by H and E staining based analysis. The note with it: in vivo. It counts as toxicity.
The species entered for data set [4] is Mus musculus. Briefly: Analgesic activity in mouse assessed reduction in number of acetic acid-induced writhing measured for 20 mins (reference value: 40 +/- 2.9). It counts as functional. (Writhing tests count abdominal constrictions after an irritant is injected.)
Data set [5] has as its system Rattus norvegicus. Briefly: Anti-inflammatory activity in carrageen-induced paw edema rat model assessed as change in paw height measured after 2 hrs (reference value: 0.64 +/- 0.05 %). It counts as functional.
Data set [6] can be described thus: Ulcerogenic activity in Albino mouse assessed as histopathological change in stomach by H and E staining based analysis. It counts as toxicity. Conditions: in vivo.
For data set [7], the system named is Rattus norvegicus. Briefly: Anti-inflammatory activity in carrageen-induced paw edema rat model assessed as change in paw height measured immediately (reference value: 0.56 +/- 0.05 %). Format: functional.
Data set [8] relates to Rattus norvegicus. Briefly: Anti-inflammatory activity in carrageen-induced paw edema rat model assessed as inhibition of edema measured after 3 hrs relative to control. Format: functional.
For data set [9], the system named is Rattus norvegicus. Briefly: Anti-inflammatory activity in carrageen-induced paw edema rat model assessed as change in paw height measured after 3 hrs (reference value: 0.78 +/- 0.08 %). Format: functional.
Data set [10] is filed under the species Mus musculus. Briefly: Analgesic activity in mouse assessed protection against acetic acid-induced writhing measured for 20 mins relative to control. It counts as functional.
The target of the next data set is Carbonic anhydrase 1 (Homo sapiens, UniProt P00915). Briefly: Binding affinity to human CA1 assessed as inhibition constant by stopped flow kinetic assay.
The next data set addresses Carbonic anhydrase 9 (Homo sapiens, UniProt Q16790). Briefly: Binding affinity to human CA9 assessed as inhibition constant by stopped flow kinetic assay.
The next data set deals with Carbonic anhydrase 12 (Homo sapiens, UniProt O43570). Briefly: Binding affinity to human CA12 assessed as inhibition constant by stopped flow kinetic assay.
Another data set addresses Carbonic anhydrase 2 (Homo sapiens, UniProt P00918). Briefly: Binding affinity to human CA2 assessed as inhibition constant by stopped flow kinetic assay.

Prostaglandin G/H synthase 1, sequence (P23219 whole entry): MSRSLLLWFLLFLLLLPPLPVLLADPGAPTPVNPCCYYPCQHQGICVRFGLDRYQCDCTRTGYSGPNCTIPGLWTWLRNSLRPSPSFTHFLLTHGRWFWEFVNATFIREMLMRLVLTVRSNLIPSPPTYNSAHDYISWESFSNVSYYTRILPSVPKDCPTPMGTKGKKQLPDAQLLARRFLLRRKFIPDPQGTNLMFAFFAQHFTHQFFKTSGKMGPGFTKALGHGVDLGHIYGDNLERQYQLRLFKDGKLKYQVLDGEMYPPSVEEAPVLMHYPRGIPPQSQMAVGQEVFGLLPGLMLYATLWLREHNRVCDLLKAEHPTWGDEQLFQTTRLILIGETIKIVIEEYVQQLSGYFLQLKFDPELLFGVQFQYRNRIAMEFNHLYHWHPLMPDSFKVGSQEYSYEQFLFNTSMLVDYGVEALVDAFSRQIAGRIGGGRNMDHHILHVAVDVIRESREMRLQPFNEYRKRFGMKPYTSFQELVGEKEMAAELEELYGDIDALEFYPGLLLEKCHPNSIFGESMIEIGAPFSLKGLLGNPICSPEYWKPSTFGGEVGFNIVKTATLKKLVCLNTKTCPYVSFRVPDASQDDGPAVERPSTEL
Carbonic anhydrase 12, sequence (O43570 whole entry): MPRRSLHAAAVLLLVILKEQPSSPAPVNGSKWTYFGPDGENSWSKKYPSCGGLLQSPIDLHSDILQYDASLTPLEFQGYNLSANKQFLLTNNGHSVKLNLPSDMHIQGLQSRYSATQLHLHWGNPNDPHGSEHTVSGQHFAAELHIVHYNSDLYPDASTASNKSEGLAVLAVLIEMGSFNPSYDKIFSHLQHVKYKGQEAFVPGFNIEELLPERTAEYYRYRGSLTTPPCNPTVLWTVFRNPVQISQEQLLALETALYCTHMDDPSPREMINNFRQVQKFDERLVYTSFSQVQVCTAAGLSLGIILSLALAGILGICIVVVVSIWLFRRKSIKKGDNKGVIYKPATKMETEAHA
Carbonic anhydrase 1, sequence (P00915 whole entry): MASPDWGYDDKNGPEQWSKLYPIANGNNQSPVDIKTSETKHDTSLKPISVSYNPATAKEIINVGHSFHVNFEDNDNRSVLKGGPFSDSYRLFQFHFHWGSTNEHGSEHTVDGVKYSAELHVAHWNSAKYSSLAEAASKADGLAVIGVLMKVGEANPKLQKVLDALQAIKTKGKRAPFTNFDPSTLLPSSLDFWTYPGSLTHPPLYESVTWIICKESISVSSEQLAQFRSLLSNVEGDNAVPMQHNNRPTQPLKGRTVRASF

Regarding `Nc1c(C(=O)N/N=C/c2ccc([N+](=O)[O-])cc2)cnn1-c1ccc(S(N)(=O)=O)cc1`, in data set [1], the IC50 came to 5 µM.
In data set [1], `Nc1c(C(=O)N/N=C/c2ccccc2[N+](=O)[O-])cnn1-c1ccc(S(N)(=O)=O)cc1` gave an IC50 of 4.8 µM.
Regarding `O=C(O)Cc1ccccc1Nc1c(Cl)cccc1Cl` [DICLOFENAC], the Activity in the data set with Rattus norvegicus [2] is listed as 0.28%; in data set [3], “Toxic”; in the data set filed under Mus musculus [4] it was 12; in the data set with Rattus norvegicus [5], 0.32%; in data set [6] it was “Toxic”; with Rattus norvegicus [7], 0.52%. For the same molecule, the Activity with Rattus norvegicus [9] came out at 0.32%; in the data set filed under Mus musculus [10], 70%. Moreover, in the data set with Rattus norvegicus [8], the “inhibition (INH)” value was 59%.
For the molecule `Nc1c(C(=O)N/N=C/c2cccc([N+](=O)[O-])c2)cnn1-c1ccc(S(N)(=O)=O)cc1`, the IC50 in [1] was 5 µM.
Consider `Cc1ccc(-c2cc(C(F)(F)F)nn2-c2ccc(S(N)(=O)=O)cc2)cc1` [CELECOXIB], for which the Activity in the data set on Rattus norvegicus [2] is on record as 0.44%; in the data set filed under Mus musculus [4], 16; in the data set on Rattus norvegicus [5], 0.52%; in data set [6], “Non-Toxic”; in the data set with Rattus norvegicus [7] it was 0.5%; in the data set on Rattus norvegicus [9] it was 0.48%. The same molecule gave an Activity in the data set listed under Mus musculus [10] of 60%. Moreover, the “inhibition (INH)” value with Rattus norvegicus [8] is recorded as 38.5%.
Molecule `CN(C)c1ccc(/C=N/NC(=O)c2cnn(-c3ccc(S(N)(=O)=O)cc3)c2N)cc1` returned a concentration for half-maximal inhibition (IC50) in data set [1] of 7 µM.
Regarding `Nc1c(C(=O)N/N=C/c2cccs2)cnn1-c1ccc(S(N)(=O)=O)cc1`, the IC50 in data set [1] worked out at 9.5 µM.
`Nc1c(C(=O)N/N=C/c2ccc(Cl)cc2)cnn1-c1ccc(S(N)(=O)=O)cc1`: it took 8 µM to reach half-maximal inhibition in data set [1] (IC50).
Molecule `COc1ccc(/C=N/NC(=O)c2cnn(-c3ccc(S(N)(=O)=O)cc3)c2N)cc1` gave an IC50 in data set [1] of 6 µM.
Turning to `Nc1c(C(=O)N/N=C/c2ccc(O)cc2)cnn1-c1ccc(S(N)(=O)=O)cc1`, the Activity with Rattus norvegicus [2] is 0.52%; in the data set filed under Mus musculus [4] it was 19; in the data set with Rattus norvegicus [5], 0.62%; in data set [6], “Non-Toxic”; in the data set on Rattus norvegicus [7], 0.48%; with Rattus norvegicus [9] it was 0.54%. Further, in the data set listed under Mus musculus [10], the Activity is reported as 52.5%. Also, the Ki on Carbonic anhydrase 1 is 134 nM; on Carbonic anhydrase 9, 48.9 nM; on Carbonic anhydrase 12 it was 5.8 nM; on Carbonic anhydrase 2, 26.9 nM. Further, the half-inhibitory concentration (IC50) in [1] worked out at 12.5 µM. The “inhibition (INH)” value in the data set on Rattus norvegicus [8] stood at 31%.
Take `Nc1c(C(=O)N/N=C/c2ccccc2)cnn1-c1ccc(S(N)(=O)=O)cc1`: in data set [6], the Activity entry was “Non-Toxic”. Moreover, 10.4 µM corresponded to half-maximal inhibition in data set [1] (IC50).
`Nc1c(C(=O)N/N=C/c2ccccc2Cl)cnn1-c1ccc(S(N)(=O)=O)cc1`: the IC50 in data set [1] was 10.5 µM.

By IC50 is commonly meant the point on the concentration scale where inhibition reaches its midpoint. For orientation: Ki means a dissociation constant, usually derived from enzyme kinetics or from competition with a known ligand.

The record behind these values is ChEMBL document CHEMBL5385885, “4-(5-Amino-pyrazol-1-yl)benzenesulfonamide derivatives as novel multi-target anti-inflammatory agents endowed with inhibitory activity against COX-2, 5-LOX and carbonic anhydrase: Design, synthesis, and biological assessments” (Eur J Med Chem, 2023).
